According to ChEMBL document CHEMBL1201862, “PubChem BioAssay data set” (2004):
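These data come from cells grown in 96-well plates and exposed to compound for 48 hours at five concentrations. GI50: concentration for 50% inhibition of growth.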 The source made the active and inactive calls. Rule as the data show it: active = GI50 up to about 1.1 µM and inactive = higher.

Tests used:
Experiment in all cases: DTP human tumour cell line panel, 48 h
HOP-62 = tested on: HOP-62
RPMI-8226 = tested on: RPMI-8226
SK-MEL-28 = tested on: SK-MEL-28
KM12 = tested on: KM12
Malme-3M = tested on: Malme-3M
OVCAR-4 = tested on: OVCAR-4
IGROV-1 = tested on: IGROV-1
K562 = tested on: K562
HL-60 = tested on: HL-60
EKVX = tested on: EKVX
SN12C = tested on: SN12C
NCI-H460 = tested on: NCI-H460
HCC 2998 = tested on: HCC 2998
LOX IMVI = tested on: LOX IMVI
CAKI-1 = tested on: CAKI-1
UACC-62 = tested on: UACC-62
NCI-H226 = tested on: NCI-H226
MCF7 = tested on: MCF7
SK-MEL-2 = tested on: SK-MEL-2
UACC-257 = tested on: UACC-257

SMILES	GI50 (HOP-62)	GI50 (RPMI-8226)	GI50 (SK-MEL-28)	GI50 (KM12)	GI50 (Malme-3M)	GI50 (OVCAR-4)	GI50 (IGROV-1)	GI50 (K562)	GI50 (HL-60)	GI50 (EKVX)	GI50 (SN12C)	GI50 (NCI-H460)	GI50 (HCC 2998)	GI50 (LOX IMVI)	GI50 (CAKI-1)	GI50 (UACC-62)	GI50 (NCI-H226)	GI50 (MCF7)	GI50 (SK-MEL-2)	GI50 (UACC-257)
COc1ccc(-c2cc(-c3ccccc3)n(C3OC(COC(C)=O)C(OC(C)=O)C(OC(C)=O)C3OC(C)=O)c(=S)c2C#N)cc1 (stereo not given)	3.81 µM (inactive)	3.28 µM (inactive)	12.6 µM (inactive)	16.9 µM (inactive)	5.87 µM (inactive)	2.6 µM (inactive)	14.8 µM (inactive)	3.61 µM (inactive)	2.61 µM (inactive)	14.9 µM (inactive)	9.79 µM (inactive)	7.48 µM (inactive)	22.3 µM (inactive)	4.51 µM (inactive)	6.52 µM (inactive)	4.79 µM (inactive)	5.87 µM (inactive)	25.4 µM (inactive)	–	–
CC1CC/C(=C\c2ccc(N(C)C)cc2)C2=C1C(c1ccc(N(C)C)cc1)NC(=S)N2 (stereo not given)	–	> 100 µM (inactive)	> 100 µM (inactive)	> 100 µM (inactive)	> 100 µM (inactive)	–	> 100 µM (inactive)	> 100 µM (inactive)	> 100 µM (inactive)	> 100 µM (inactive)	> 100 µM (inactive)	–	–	> 100 µM (inactive)	> 100 µM (inactive)	> 100 µM (inactive)	> 100 µM (inactive)	> 100 µM (inactive)	> 100 µM (inactive)	> 100 µM (inactive)
CN1C(=O)CCC1c1ccc2c(c1)oc(=O)n2C (stereo not given)	> 100 µM (inactive)	> 100 µM (inactive)	> 100 µM (inactive)	> 100 µM (inactive)	> 100 µM (inactive)	> 100 µM (inactive)	> 100 µM (inactive)	> 100 µM (inactive)	> 100 µM (inactive)	> 100 µM (inactive)	> 100 µM (inactive)	> 100 µM (inactive)	> 100 µM (inactive)	> 100 µM (inactive)	> 100 µM (inactive)	> 100 µM (inactive)	> 100 µM (inactive)	–	> 100 µM (inactive)	> 100 µM (inactive)
CC(=O)c1c2c(cc3c1CC1(Cc4cc5c(cc4C1)C(=O)CCC5)C3)CCCC2 (stereo not given)	5.09 µM (inactive)	3.48 µM (inactive)	7.38 µM (inactive)	5.3 µM (inactive)	6.64 µM (inactive)	5.83 µM (inactive)	3.45 µM (inactive)	1.76 µM (inactive)	1.82 µM (inactive)	> 23.8 µM (inactive)	13.4 µM (inactive)	4.69 µM (inactive)	12.5 µM (inactive)	7.18 µM (inactive)	7.73 µM (inactive)	–	3.5 µM (inactive)	4.49 µM (inactive)	2.88 µM (inactive)	3.34 µM (inactive)
COC(=O)[C@H](Cc1ccccc1)NC(=O)N(CCNC(=O)OC(C)(C)C)c1ccccc1	> 100 µM (inactive)	> 100 µM (inactive)	> 100 µM (inactive)	> 100 µM (inactive)	> 100 µM (inactive)	> 100 µM (inactive)	> 100 µM (inactive)	> 100 µM (inactive)	> 100 µM (inactive)	> 100 µM (inactive)	> 100 µM (inactive)	> 100 µM (inactive)	> 100 µM (inactive)	> 100 µM (inactive)	> 100 µM (inactive)	> 100 µM (inactive)	> 100 µM (inactive)	> 100 µM (inactive)	> 100 µM (inactive)	–
O=C(/C=C/c1ccc(OCc2ccccc2)cc1)NCc1ccc(C(=O)NCc2ccccc2)cc1	> 100 µM (inactive)	> 100 µM (inactive)	> 100 µM (inactive)	> 100 µM (inactive)	> 100 µM (inactive)	> 100 µM (inactive)	> 100 µM (inactive)	> 100 µM (inactive)	–	> 100 µM (inactive)	> 100 µM (inactive)	> 100 µM (inactive)	> 100 µM (inactive)	> 100 µM (inactive)	> 100 µM (inactive)	> 100 µM (inactive)	> 100 µM (inactive)	> 100 µM (inactive)	> 100 µM (inactive)	> 100 µM (inactive)
CCOC(=O)/C=C/n1c2ccccc2c(=O)c2ccccc21	> 100 µM (inactive)	> 100 µM (inactive)	> 100 µM (inactive)	> 100 µM (inactive)	> 100 µM (inactive)	> 100 µM (inactive)	> 100 µM (inactive)	> 100 µM (inactive)	> 100 µM (inactive)	> 100 µM (inactive)	> 100 µM (inactive)	> 100 µM (inactive)	> 100 µM (inactive)	> 100 µM (inactive)	> 100 µM (inactive)	> 100 µM (inactive)	> 100 µM (inactive)	–	> 100 µM (inactive)	> 100 µM (inactive)
CC[C@H](O)[C@H](C)C=C1SCCCS1	> 100 µM (inactive)	> 100 µM (inactive)	> 100 µM (inactive)	> 100 µM (inactive)	> 100 µM (inactive)	> 100 µM (inactive)	> 100 µM (inactive)	> 100 µM (inactive)	34.8 µM (inactive)	> 100 µM (inactive)	> 100 µM (inactive)	–	> 100 µM (inactive)	> 100 µM (inactive)	> 100 µM (inactive)	> 100 µM (inactive)	> 100 µM (inactive)	> 100 µM (inactive)	> 100 µM (inactive)	> 100 µM (inactive)
O=C(Nn1c(-c2ccccc2)nc2ccccc2c1=O)c1ccc(CS)cc1	> 100 µM (inactive)	33.2 µM (inactive)	69.8 µM (inactive)	81.1 µM (inactive)	36.6 µM (inactive)	98.4 µM (inactive)	26.1 µM (inactive)	38.2 µM (inactive)	16 µM (inactive)	36.7 µM (inactive)	36.6 µM (inactive)	> 100 µM (inactive)	> 100 µM (inactive)	1.67 µM (inactive)	–	27.7 µM (inactive)	37.7 µM (inactive)	29.8 µM (inactive)	–	> 100 µM (inactive)
Cn1cc(-c2csc(-c3cn(C)c4ccccc34)n2)c2ccccc21	17.6 µM (inactive)	20.7 µM (inactive)	61.5 µM (inactive)	43.3 µM (inactive)	19.1 µM (inactive)	22.2 µM (inactive)	27 µM (inactive)	11.2 µM (inactive)	> 100 µM (inactive)	–	47.8 µM (inactive)	26.5 µM (inactive)	–	36.4 µM (inactive)	17.8 µM (inactive)	32.2 µM (inactive)	32.2 µM (inactive)	45.5 µM (inactive)	38.8 µM (inactive)	48.6 µM (inactive)
OC[C@H]1C[C@@H]2Cc3ccccc3N2N1	> 100 µM (inactive)	–	> 100 µM (inactive)	> 100 µM (inactive)	> 100 µM (inactive)	> 100 µM (inactive)	> 100 µM (inactive)	> 100 µM (inactive)	> 100 µM (inactive)	> 100 µM (inactive)	> 100 µM (inactive)	> 100 µM (inactive)	> 100 µM (inactive)	> 100 µM (inactive)	> 100 µM (inactive)	> 100 µM (inactive)	> 100 µM (inactive)	–	> 100 µM (inactive)	> 100 µM (inactive)
CCCCC1Cc2ccccc2-c2n1c1ccccc1[n+]2C (stereo not given)	24.9 µM (inactive)	1.94 µM (inactive)	11.3 µM (inactive)	9.55 µM (inactive)	–	24.5 µM (inactive)	17.3 µM (inactive)	2.49 µM (inactive)	3.99 µM (inactive)	25.9 µM (inactive)	–	16.2 µM (inactive)	5.47 µM (inactive)	10.4 µM (inactive)	> 100 µM (inactive)	–	22.3 µM (inactive)	8.77 µM (inactive)	8.53 µM (inactive)	1.87 µM (inactive)
C#CC(C)(C)OCCCCOc1cc(O)c2c(=O)c3ccccc3n(C)c2c1	> 100 µM (inactive)	> 100 µM (inactive)	> 100 µM (inactive)	97.9 µM (inactive)	> 100 µM (inactive)	> 100 µM (inactive)	> 100 µM (inactive)	> 100 µM (inactive)	> 100 µM (inactive)	> 100 µM (inactive)	> 100 µM (inactive)	57.5 µM (inactive)	66.1 µM (inactive)	> 100 µM (inactive)	> 100 µM (inactive)	> 100 µM (inactive)	> 100 µM (inactive)	–	> 100 µM (inactive)	> 100 µM (inactive)
ClCc1ccc2ccc3ccc(CCl)nc3c2n1	4.29 µM (inactive)	1.46 µM (inactive)	1.83 µM (inactive)	0.9 µM (active)	1.92 µM (inactive)	5.65 µM (inactive)	1.7 µM (inactive)	3.18 µM (inactive)	1.8 µM (inactive)	15.6 µM (inactive)	2.36 µM (inactive)	4.62 µM (inactive)	4.11 µM (inactive)	1.56 µM (inactive)	–	1.34 µM (inactive)	2.28 µM (inactive)	0.955 µM (active)	1.77 µM (inactive)	1.29 µM (inactive)
CC1=C2C3OC(=O)C(C)C3CCC2(C)C=C/C1=N\c1ccccc1 (stereo not given)	> 100 µM (inactive)	–	> 100 µM (inactive)	> 100 µM (inactive)	> 100 µM (inactive)	> 100 µM (inactive)	> 100 µM (inactive)	> 100 µM (inactive)	> 100 µM (inactive)	> 100 µM (inactive)	> 100 µM (inactive)	> 100 µM (inactive)	> 100 µM (inactive)	> 100 µM (inactive)	–	> 100 µM (inactive)	> 100 µM (inactive)	> 100 µM (inactive)	> 100 µM (inactive)	> 100 µM (inactive)
